# Measurements: ChEMBL document CHEMBL1909046, “DrugMatrix in vitro pharmacology data”
# pIC50: −log10 of the molar value.
# Biological target: 5-hydroxytryptamine receptor 1B (Rattus norvegicus, UniProt P28564); note: in other assays of this panel Not Active means under 50% inhibition at 10 µM
# Assay: not given
# Format: cell membranes, Wistar, Cerebral cortex, Membrane
# Details: not given
# Sequence of 5-hydroxytryptamine receptor 1B (P28564 whole entry): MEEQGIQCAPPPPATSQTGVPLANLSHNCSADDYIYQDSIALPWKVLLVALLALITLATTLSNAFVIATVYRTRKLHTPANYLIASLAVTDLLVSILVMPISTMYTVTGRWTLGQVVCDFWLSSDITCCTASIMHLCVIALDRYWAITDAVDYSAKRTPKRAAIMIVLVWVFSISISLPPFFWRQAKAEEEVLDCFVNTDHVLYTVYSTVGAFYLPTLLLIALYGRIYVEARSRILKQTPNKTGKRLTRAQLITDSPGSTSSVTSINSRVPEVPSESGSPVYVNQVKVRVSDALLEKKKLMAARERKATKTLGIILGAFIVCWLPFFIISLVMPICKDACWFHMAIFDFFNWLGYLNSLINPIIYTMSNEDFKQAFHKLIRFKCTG
Compound,IC50,Ki
CC(=N)S [THIOACETAMIDE],Not Active,–
Cc1ccc(C(=O)c2ccc(CC(=O)O)n2C)cc1 [TOLMETIN],Not Active,–
CC(=O)OCC(COC(C)=O)OC(C)=O [TRIACETIN],Not Active,–
CN1CCN(CCCN2c3ccccc3Sc3ccc(C(F)(F)F)cc32)CC1 [TRIFLUOPERAZINE],Not Active,–
TRANSPLATIN,Not Active,Not Active
ZIRCONIUM(IV) CHLORIDE,Not Active,Not Active

# Biological target: T1, C-X-C chemokine receptor type 1 (Homo sapiens, UniProt P25024); note: in other assays of this panel Not Active means under 50% inhibition at 10 µM
# T1 sequence (P25024 whole entry): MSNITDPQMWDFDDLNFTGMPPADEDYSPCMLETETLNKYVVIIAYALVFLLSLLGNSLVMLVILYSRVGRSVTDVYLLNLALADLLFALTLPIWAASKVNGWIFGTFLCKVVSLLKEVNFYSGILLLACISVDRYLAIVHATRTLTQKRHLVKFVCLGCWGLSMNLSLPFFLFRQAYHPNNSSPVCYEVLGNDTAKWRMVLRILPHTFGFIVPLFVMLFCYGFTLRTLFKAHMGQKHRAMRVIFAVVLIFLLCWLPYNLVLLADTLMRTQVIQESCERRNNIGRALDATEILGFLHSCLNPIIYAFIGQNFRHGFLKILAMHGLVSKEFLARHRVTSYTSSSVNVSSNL
# Assay: not given
# Details: not given
Compound,IC50,Ki
CC(=N)S [THIOACETAMIDE],Not Active,–
Cc1ccc(C(=O)c2ccc(CC(=O)O)n2C)cc1 [TOLMETIN],Not Active,–
CC(=O)OCC(COC(C)=O)OC(C)=O [TRIACETIN],Not Active,–
CN1CCN(CCCN2c3ccccc3Sc3ccc(C(F)(F)F)cc32)CC1 [TRIFLUOPERAZINE],Not Active,–
TRANSPLATIN,Not Active,Not Active
ZIRCONIUM(IV) CHLORIDE,Not Active,Not Active

# Biological target: T2, Neuropeptide Y receptor type 1 (Homo sapiens, UniProt P25929); note: in other assays of this panel Not Active means under 50% inhibition at 10 µM
# T2 sequence (P25929 whole entry): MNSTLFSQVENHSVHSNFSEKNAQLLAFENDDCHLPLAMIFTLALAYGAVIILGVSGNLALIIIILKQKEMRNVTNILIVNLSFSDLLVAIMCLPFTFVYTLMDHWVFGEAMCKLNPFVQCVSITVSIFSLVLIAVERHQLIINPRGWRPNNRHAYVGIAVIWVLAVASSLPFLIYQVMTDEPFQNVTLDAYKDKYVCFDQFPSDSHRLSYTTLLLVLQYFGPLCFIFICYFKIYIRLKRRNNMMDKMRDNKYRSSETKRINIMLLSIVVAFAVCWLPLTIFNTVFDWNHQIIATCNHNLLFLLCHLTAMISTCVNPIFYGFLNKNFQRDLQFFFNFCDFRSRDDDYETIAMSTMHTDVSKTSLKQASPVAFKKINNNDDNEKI
# Assay: not given
# Format: cell membranes, Membrane
# Details: sk-n-mc
Compound,IC50,Ki
CC(=N)S [THIOACETAMIDE],Not Active,–
Cc1ccc(C(=O)c2ccc(CC(=O)O)n2C)cc1 [TOLMETIN],Not Active,–
CC(=O)OCC(COC(C)=O)OC(C)=O [TRIACETIN],Not Active,–
CN1CCN(CCCN2c3ccccc3Sc3ccc(C(F)(F)F)cc32)CC1 [TRIFLUOPERAZINE],Not Active,–
TRANSPLATIN,Not Active,Not Active
ZIRCONIUM(IV) CHLORIDE,Not Active,Not Active

# Biological target: Prostaglandin G/H synthase 1 (Homo sapiens, UniProt P23219);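 note: inhibition of COX-1 enzyme activity, with arachidonic acid supplied as substrate; in other assays of this panel Not Active means under 50% inhibition at 10 µM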
# Sequence (P23219 whole entry): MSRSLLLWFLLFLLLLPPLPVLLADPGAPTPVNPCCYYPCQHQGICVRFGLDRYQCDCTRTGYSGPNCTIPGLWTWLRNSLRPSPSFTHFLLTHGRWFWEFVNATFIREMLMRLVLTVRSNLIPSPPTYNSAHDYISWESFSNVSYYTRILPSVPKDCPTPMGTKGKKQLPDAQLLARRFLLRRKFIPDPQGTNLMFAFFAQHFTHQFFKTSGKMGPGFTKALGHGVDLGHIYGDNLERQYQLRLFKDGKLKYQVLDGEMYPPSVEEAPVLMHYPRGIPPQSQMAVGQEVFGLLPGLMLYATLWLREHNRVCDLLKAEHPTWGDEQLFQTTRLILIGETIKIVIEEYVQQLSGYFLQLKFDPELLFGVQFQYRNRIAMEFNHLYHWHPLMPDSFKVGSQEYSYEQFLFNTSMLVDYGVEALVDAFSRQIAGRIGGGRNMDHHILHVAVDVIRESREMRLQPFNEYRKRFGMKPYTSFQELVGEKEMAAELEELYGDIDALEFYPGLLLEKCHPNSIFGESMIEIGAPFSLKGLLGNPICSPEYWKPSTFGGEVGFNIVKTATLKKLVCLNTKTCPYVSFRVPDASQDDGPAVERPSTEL
# Assay: biochemical
# Format: tissue-based, Platelet
# Details: platelet
Compound,IC50,Ki
CC(=N)S [THIOACETAMIDE],Not Active,–
CC(=O)OCC(COC(C)=O)OC(C)=O [TRIACETIN],Not Active,–
CN1CCN(CCCN2c3ccccc3Sc3ccc(C(F)(F)F)cc32)CC1 [TRIFLUOPERAZINE],Not Active,–
TRANSPLATIN,Not Active,Not Active
ZIRCONIUM(IV) CHLORIDE,Not Active,Not Active

# Same assay, conditions: read-out: IC50
row,Compound,pIC50
1,Cc1ccc(C(=O)c2ccc(CC(=O)O)n2C)cc1 [TOLMETIN],7.39

# Biological target: Nitric oxide synthase 1 (Rattus norvegicus, UniProt P29476); note: in other assays of this panel Not Active means under 50% inhibition at 10 µM
# Sequence (P29476 whole entry): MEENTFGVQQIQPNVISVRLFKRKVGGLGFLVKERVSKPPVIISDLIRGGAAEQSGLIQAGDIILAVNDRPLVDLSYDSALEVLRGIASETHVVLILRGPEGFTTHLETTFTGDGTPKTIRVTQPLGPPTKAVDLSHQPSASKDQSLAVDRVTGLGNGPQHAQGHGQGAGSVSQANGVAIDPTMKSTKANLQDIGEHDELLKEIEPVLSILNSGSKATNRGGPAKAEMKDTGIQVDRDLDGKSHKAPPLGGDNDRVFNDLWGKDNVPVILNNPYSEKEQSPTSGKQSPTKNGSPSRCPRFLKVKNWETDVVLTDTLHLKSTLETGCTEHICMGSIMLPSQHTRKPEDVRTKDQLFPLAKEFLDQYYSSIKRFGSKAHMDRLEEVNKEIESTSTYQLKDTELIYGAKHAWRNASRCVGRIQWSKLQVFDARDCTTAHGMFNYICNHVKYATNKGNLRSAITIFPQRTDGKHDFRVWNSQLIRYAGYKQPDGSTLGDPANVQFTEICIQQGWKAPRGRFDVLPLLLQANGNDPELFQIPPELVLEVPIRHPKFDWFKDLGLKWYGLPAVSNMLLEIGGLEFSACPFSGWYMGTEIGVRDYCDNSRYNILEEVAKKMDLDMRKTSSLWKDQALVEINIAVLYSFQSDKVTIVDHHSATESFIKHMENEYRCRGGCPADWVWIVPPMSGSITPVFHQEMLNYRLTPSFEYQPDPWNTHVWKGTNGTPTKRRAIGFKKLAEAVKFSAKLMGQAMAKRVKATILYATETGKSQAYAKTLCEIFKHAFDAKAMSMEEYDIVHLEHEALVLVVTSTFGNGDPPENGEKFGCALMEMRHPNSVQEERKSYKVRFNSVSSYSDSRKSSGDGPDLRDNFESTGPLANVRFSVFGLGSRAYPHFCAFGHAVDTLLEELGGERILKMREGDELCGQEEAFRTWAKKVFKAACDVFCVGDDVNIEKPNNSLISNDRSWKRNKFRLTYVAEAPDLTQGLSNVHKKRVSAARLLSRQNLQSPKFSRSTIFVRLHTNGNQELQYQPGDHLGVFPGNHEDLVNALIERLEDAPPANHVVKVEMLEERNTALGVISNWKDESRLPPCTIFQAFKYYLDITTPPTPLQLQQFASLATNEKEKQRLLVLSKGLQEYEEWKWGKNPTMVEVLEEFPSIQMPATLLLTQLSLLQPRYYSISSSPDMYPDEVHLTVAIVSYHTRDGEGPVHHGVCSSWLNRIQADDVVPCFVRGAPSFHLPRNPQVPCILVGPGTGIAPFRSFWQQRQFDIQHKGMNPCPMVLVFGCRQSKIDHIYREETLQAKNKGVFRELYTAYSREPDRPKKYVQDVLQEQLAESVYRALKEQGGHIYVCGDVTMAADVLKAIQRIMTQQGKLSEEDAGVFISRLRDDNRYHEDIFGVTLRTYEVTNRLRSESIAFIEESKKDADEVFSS
# Assay: not given
# Format: tissue-based, Cerebellum
# Details: not given
Compound,IC50,Ki
CC(=N)S [THIOACETAMIDE],Not Active,–
Cc1ccc(C(=O)c2ccc(CC(=O)O)n2C)cc1 [TOLMETIN],Not Active,–
CC(=O)OCC(COC(C)=O)OC(C)=O [TRIACETIN],Not Active,–
CN1CCN(CCCN2c3ccccc3Sc3ccc(C(F)(F)F)cc32)CC1 [TRIFLUOPERAZINE],Not Active,–
TRANSPLATIN,Not Active,Not Active
ZIRCONIUM(IV) CHLORIDE,Not Active,Not Active

# Biological target: Insulin receptor (Rattus norvegicus, UniProt P15127); note: in other assays of this panel Not Active means under 50% inhibition at 10 µM
# Sequence (P15127 27-759 limits assumed): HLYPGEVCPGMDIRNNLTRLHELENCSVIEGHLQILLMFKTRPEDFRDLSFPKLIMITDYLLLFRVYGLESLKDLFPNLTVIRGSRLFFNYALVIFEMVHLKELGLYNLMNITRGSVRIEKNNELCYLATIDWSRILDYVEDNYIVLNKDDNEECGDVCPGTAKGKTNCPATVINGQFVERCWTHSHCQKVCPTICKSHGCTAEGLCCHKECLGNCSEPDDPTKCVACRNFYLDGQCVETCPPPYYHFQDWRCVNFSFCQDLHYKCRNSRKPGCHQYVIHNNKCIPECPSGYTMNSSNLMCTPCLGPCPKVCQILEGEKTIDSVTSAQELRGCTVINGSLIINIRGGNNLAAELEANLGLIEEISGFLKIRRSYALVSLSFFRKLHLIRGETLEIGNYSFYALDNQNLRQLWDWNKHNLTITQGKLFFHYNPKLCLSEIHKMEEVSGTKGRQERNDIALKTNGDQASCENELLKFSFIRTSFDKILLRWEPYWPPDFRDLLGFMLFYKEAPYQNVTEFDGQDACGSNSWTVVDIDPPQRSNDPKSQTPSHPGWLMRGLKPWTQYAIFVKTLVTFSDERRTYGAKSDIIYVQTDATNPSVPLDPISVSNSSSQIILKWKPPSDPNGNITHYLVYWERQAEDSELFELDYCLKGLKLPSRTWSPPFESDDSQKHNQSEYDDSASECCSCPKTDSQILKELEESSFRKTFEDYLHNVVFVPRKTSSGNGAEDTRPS
# Sequence (P15127 764-1383 limits assumed): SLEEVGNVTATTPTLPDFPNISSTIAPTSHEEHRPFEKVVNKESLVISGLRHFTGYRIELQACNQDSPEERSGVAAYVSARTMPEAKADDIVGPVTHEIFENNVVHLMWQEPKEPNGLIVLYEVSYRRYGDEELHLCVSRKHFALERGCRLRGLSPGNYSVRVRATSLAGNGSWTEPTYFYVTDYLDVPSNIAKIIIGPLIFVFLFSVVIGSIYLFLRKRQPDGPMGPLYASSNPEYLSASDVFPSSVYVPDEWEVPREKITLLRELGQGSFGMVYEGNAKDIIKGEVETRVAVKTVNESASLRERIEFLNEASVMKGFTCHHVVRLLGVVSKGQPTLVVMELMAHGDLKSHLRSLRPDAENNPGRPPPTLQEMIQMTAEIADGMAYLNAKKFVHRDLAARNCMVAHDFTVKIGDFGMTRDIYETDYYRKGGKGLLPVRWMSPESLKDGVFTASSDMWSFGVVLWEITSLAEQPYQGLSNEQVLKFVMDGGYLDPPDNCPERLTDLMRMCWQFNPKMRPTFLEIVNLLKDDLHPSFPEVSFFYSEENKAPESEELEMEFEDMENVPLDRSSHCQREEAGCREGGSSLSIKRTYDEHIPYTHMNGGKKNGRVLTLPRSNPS
# Assay: not given
# Format: cell membranes, Wistar, Liver, Membrane
# Details: not given
Compound,IC50,Ki
CC(=N)S [THIOACETAMIDE],Not Active,–
Cc1ccc(C(=O)c2ccc(CC(=O)O)n2C)cc1 [TOLMETIN],Not Active,–
CC(=O)OCC(COC(C)=O)OC(C)=O [TRIACETIN],Not Active,–
CN1CCN(CCCN2c3ccccc3Sc3ccc(C(F)(F)F)cc32)CC1 [TRIFLUOPERAZINE],Not Active,–
TRANSPLATIN,Not Active,Not Active
ZIRCONIUM(IV) CHLORIDE,Not Active,Not Active

# Biological target: Mitogen-activated protein kinase 1 (Homo sapiens, UniProt P28482)
# Sequence (P28482 whole entry): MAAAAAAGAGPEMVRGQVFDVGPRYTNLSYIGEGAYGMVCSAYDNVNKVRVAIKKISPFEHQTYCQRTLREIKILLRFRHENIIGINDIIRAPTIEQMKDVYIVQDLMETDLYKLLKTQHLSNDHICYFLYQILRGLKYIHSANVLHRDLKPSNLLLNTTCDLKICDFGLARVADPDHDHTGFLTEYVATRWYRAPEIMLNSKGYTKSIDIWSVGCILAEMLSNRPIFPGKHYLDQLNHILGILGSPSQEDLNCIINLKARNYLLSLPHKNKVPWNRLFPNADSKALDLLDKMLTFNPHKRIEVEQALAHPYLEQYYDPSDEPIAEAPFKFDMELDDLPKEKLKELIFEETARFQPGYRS
# Assay: DRUGMATRIX: Protein Serine/Threonine Kinase, ERK2 enzyme inhibition (substrate: Myelin Basic Protein)
# Set-up: species or system Escherichia coli
# Details: Not Active = under 50% inhibition at 10 µM
Compound,IC50,Ki
CC(=N)S [THIOACETAMIDE],Not Active,–
Cc1ccc(C(=O)c2ccc(CC(=O)O)n2C)cc1 [TOLMETIN],Not Active,–
CC(=O)OCC(COC(C)=O)OC(C)=O [TRIACETIN],Not Active,–
CN1CCN(CCCN2c3ccccc3Sc3ccc(C(F)(F)F)cc32)CC1 [TRIFLUOPERAZINE],Not Active,–
TRANSPLATIN,Not Active,Not Active
ZIRCONIUM(IV) CHLORIDE,Not Active,Not Active

# Biological target: T3, Receptor-type tyrosine-protein phosphatase C (Homo sapiens, UniProt P08575)
# T3 sequence (P08575 whole entry): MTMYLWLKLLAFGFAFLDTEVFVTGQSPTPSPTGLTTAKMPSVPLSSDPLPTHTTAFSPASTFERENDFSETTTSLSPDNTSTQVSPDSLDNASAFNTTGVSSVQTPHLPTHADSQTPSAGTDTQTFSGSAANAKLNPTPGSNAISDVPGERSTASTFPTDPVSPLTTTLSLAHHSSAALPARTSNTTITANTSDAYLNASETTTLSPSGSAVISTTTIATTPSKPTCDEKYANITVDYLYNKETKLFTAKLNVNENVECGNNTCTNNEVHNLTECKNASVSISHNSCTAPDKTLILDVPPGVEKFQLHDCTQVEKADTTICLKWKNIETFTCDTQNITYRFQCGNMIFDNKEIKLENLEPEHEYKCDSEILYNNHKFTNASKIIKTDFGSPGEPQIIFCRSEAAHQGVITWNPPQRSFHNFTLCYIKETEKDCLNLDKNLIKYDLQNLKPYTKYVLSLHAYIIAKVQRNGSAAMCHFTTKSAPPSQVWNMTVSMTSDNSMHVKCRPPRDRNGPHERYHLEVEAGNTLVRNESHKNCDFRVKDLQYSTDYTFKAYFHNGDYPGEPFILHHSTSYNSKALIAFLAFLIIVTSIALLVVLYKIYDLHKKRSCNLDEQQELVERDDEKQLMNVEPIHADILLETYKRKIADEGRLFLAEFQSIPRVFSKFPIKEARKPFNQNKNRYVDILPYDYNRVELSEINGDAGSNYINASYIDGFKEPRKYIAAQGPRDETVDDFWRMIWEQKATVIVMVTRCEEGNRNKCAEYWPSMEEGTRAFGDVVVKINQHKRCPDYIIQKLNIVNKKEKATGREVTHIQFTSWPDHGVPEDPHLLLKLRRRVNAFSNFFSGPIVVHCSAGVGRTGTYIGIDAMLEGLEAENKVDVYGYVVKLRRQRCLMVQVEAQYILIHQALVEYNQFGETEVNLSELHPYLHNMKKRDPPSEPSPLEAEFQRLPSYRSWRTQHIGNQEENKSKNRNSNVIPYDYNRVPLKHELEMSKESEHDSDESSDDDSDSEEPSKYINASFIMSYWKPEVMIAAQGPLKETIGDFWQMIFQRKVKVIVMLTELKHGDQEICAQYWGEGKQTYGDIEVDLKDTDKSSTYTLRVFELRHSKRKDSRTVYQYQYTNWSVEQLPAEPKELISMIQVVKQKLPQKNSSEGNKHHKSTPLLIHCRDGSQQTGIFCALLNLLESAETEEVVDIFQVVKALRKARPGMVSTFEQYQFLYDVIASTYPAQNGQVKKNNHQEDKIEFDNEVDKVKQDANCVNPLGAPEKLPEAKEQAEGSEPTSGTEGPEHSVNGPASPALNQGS
# Assay: not given
# Set-up: species or system Escherichia coli
# Details: not given
Compound,IC50,Ki
CC(=N)S [THIOACETAMIDE],Not Active,–
Cc1ccc(C(=O)c2ccc(CC(=O)O)n2C)cc1 [TOLMETIN],Not Active,–
CC(=O)OCC(COC(C)=O)OC(C)=O [TRIACETIN],Not Active,–
CN1CCN(CCCN2c3ccccc3Sc3ccc(C(F)(F)F)cc32)CC1 [TRIFLUOPERAZINE],Not Active,–
TRANSPLATIN,Not Active,Not Active
ZIRCONIUM(IV) CHLORIDE,Not Active,Not Active
